Measurements taken from patent US20090082400A1, “SOLUBLE PYRONE ANALOGS METHODS AND COMPOSITIONS” (priority 2007, published 2009).
“And” between values parts separate entries of the source, which are not always exact repeats. Equal values may be shown once. “Also recorded” adds a separate entry of the source. Values belong to the molecule of their own block, whether it stands above or below them.

Key:
[1] = Sulfobutylether-7-β-cyclodextrin-quercetin aqueous composition: concentration and storage stability; assay type: physicochemical; settings: quercetin at 10 mg/ml in water with sulfobutylether-7-β-cyclodextrin
Protocol: The flask is placed in an ice bath. […] Into the flask, 12 ml of 1 N sodium hydroxide is added over about 5 to 10 minutes. […] Into the flask is then added 10.5 ml of hydrochloric acid over 5 to 10 minutes at a slow enough rate to avoid precipitation. During the addition of the sodium hydroxide and the hydrochloric acid, the temperature is maintained at less than 20° C. DI water is then added to give total volume of 100 ml.

[2] = in vivo; cited from earlier work
[3] = Zheng, et al. J. Pharm. Sci. 94(5), 2005; cited from earlier work
[4] = Fisetin-sulfobutylether-7-β-cyclodextrin solution: concentration and precipitation; assay type: physicochemical; settings: approximately 1:2.5 molar ratio of fisetin to Captisol; pH 7.8-7.9
Protocol: Captisol™ (17.9 g) is dissolved in 55 ml of distilled (or deionized) water. Fisetin (anhydrous) (965 mg) is then added to the above solution. The mixture is stirred vigorously followed by sonication if necessary to break up any clumps so that a homogeneous suspension is obtained.
While stirring vigorously, a 1 N NaOH solution (12.0 ml) is added slowly and for the formation of the fisetin-Captisol inclusion complex. The resulting solution will be at about pH 12.5 and may have an orange-brown color. The solution is not kept long at this pH, and is quickly neutralized in the following step.
While stirring, add 1N HCl solution (9 ml) dropwise to attain pH to 7.8-7.9. The final solution may be light-yellow to light orange in color. In some cases, the pH can be brought to below pH 7.8. […] Add water to a final volume of 100 ml.
This solution will contain approximately a 1:2.5 molar ratio of fisetin to Captisol. This procedure is for preparing an approximately 9.47 mg/ml fisetin solution. In some cases, the solution can be further diluted to make a solution for injection or for oral administration, for example, by diluting with either 0.9% saline solution and/or with a solution containing dextrose.

rats = test: Blood glucose levels in rats co-administered tacrolimus and flavonoid-sulfobutylether-7-β-cyclodextrin; assay type: in vivo, rat
Protocol: One set of 5 rats is treated from day 1 to day 25 with inert vehicle 2 intraperitoneally and treated from day 11 to day 25 with inert vehicle 1 intraperitoneally. […] A third set 5 of rats is treated from day 1 to day 25 intraperitoneally with tacrolimus (Prograf®) at 0.5 mg/kg, and treated from day 11 to day 25 with sulfobutylether-7-β-cyclodextrin (Q-Captisol) at 100 mg/kg. A fourth set 5 of rats is treated from day 1 to day 25 intraperitoneally with tacrolimus (Prograft®) at 0.5 mg/kg, and treated from day 11 to day 25 with fisetin-sulfobutylether-7-β-cyclodextrin (Fisetin-Captisol) at 85 mg/kg. The blood glucose level in the rats was measured on days 1, 10, 15, 20, and 25.

[5] = Pharmacokinetic parameters of i.v. tacrolimus in the presence of Q-Captisol in male Lewis rats; assay type: in vivo; settings: rat, whole blood, iv, tacrolimus 1 mg/kg i.v.; for AUC / Cmax / Vd / clearance / half-life: male, Lewis, 1 mg/kg
Protocol: Male Lewis rats (Charles River Laboratories; 8-9 weeks old; mean weights 282-285 gm) are randomly assigned to treatment groups by a computerized body weight stratification procedure. Quercetin-Sulfobutylether-7-β-cyclodextrin (Q-Captisol) is prepared as a dosing solution using Captisol (B-cyclodextrin-sulfobutyl ether sodium salt; CyDex Inc.) along with 1 molar equivalent of sodium hydroxide. Q-Captisol is administered intraperitoneally (i.p.) at doses of 0, 25, 150, or 300 mg/kg (N=9 rats/dose). Tacrolimus (1 mg/kg i.v.) is dosed at 0.2 ml/kg directly from Prograf 5 mg/ml clinical dosing solutions. […] Whole blood is collected in EDTA tubes from the retro-orbital sinus under 60:40 CO2:O2 anesthesia at 9 time periods using N=3 animals per time period: 5, 15, and 30 min; 1, 2, 3, 6, 8, and 24 hr after administration of tacrolimus. To avoid excessive blood loss from individual animals, 3 blood samples per rat are collected at specified time intervals, so the final samples for analysis contained N=3 blood samples per time period. Whole blood samples are froze on dry ice and stored frozen at −80° C. prior to analysis.
Thawed whole blood (200 μl) is transferred to a separate glass tube with 100 μl of ascomycin (Internal Standard: 100 ng/ml in 10% methanol) and 20 μl of 10% methanol. Samples are treated with 400 μl of 0.1 M zinc sulfate and then 100 μl of acetonitrile to precipitate proteins. Samples are vortexed, then centrifuged at 4000 rpm for 5 min. 500 μl of supernatant is transferred to a clean glass tube containing 1000 μl of water and vortexed thoroughly. Mixtures are loaded onto a 100 mg C18 cartridge (SPE column) preconditioned with 1 ml of methanol, followed by 1 ml of water. The cartridge is washed 2× with 1 ml water, followed by 100 μl methanol. Tacrolimus and Internal Standard are eluted with 500 μl of methanol into an HPLC vial containing 1000 μl of 10 mM ammonium acetate. Samples are vortexed, then centrifuged at 4000 rpm for 10 min. A 10 μl aliquot of the clarified supernatant is injected directly onto LC/MS/MS for analysis. Calibration standards are prepared in blank rat whole blood at 1, 2, 5, 5, 10, 25, 50, 62.5, and 75 ng/ml and processed as described for the samples from rats dosed with tacrolimus.
The tacrolimus concentrations in plasma are determined using validated assay methods via an LC/MS/MS analytical technique. Major pharmacokinetic parameters, including area under the concentration versus time curve from time zero to the time of last measurable concentration (AUCt), area under the concentration versus time curve from time zero to infinite time (AUCinf), maximum observed concentration (Cmax), time to reach maximum observed blood or plasma concentration (Tmax), apparent terminal elimination rate constant (Kcl), clearance (CL), and half-life (T1/2), are determined from the plasma concentration data. […] These changes are believed to be caused by drug re-distribution from non-targeted organs to systemic circulation.

[6] = Pharmacokinetic parameters of oral tacrolimus in the presence of Q-Captisol in healthy human volunteers; assay type: in vivo
Protocol: Tacrolimus-quercetin pharmacokinetic interactions are evaluated in N=15 healthy male subjects in an open-label, three-way crossover study of i.v. or oral quercetin-sulfobutylether-7-β-cyclodextrin (Q-Captisol) administered in combination with oral tacrolimus. Q-Captisol stock dosing solutions are prepared in aqueous Captisol (CyDex Inc.) using sodium hydroxide to facilitate dissolution. The final solution is adjusted to a final pH=7.5 to 8.0 using dilute sodium hydroxide or HCl. Stock solutions are aseptically filtered into a sterile IV bag and diluted to final volume with sterile saline. Q-Captisol oral dosing solutions are prepared by transferring the stock solution to a dosing cup and diluting to the final volume with deionized water. Oral tacrolimus is administered using commercially-available Prograf® capsules, with each capsule containing 1 mg tacrolimus and the excipient lactose.
In Period 1, all subjects received only a single dose of oral tacrolimus (1 mg).
In Period 2, all subjects received 3× daily oral doses of Q-Captisol on Days 12, 13, and 14. On Day 14, subjects received a single dose of oral tacrolimus (1 mg)
In Period 3, i.v. infusions of Q-Captisol are administered over 20 min via an indwelling cannula. Tacrolimus (1 mg) is administered orally 60 min after the start of the administration of the i.v. Q-Captisol dose.
The dosing regimen is as follows:
Period 1: Day 1: single oral dose of 1 mg tacrolimus
Period 2: Day 12: three times per day (Q 8 hrs) single oral dose of 100 mg Q-Captisol
Day 13: three times per day (Q 8 hrs) single oral dose of 100 mg Q-Captisol
Day 14: three times per day (Q 8 hrs) single oral dose of 100 mg Q-Captisol, with a single oral dose of 1 mg tacrolimus following the first dose of Q-Captisol.
Period 3: Day 25: single IV infusion of 100 mg Q-Captisol followed by a single oral dose of 1 mg tacrolimus.
In Period 1, blood samples for determination of tacrolimus pharmacokinetics are obtained at 0 min (pre-dose), then at 0.25, 0.5, 1, 2, 4, 8, 12, 24, 48, and 72 hr. Similar time periods are used to obtain tacrolimus blood sampled in Periods 2 and 3. Blood samples (0.4 ml) are withdrawn into K2-EDTA tubes from either an indwelling cannula or via venipuncture, then processed to yield plasma. Plasma samples are transferred to fresh tubes and frozen prior to shipment to the analytical laboratory.
The tacrolimus concentrations in plasma are determined using validated assay methods via an LC/MS/MS analytical technique. Major pharmacokinetic parameters, including area under the concentration versus time curve from time zero to the time of last measurable concentration (AUCt), area under the concentration versus time curve from time zero to infinite time (AUCinf), maximum observed concentration (Cmax), time to reach maximum observed blood or plasma concentration (Tmax), apparent terminal elimination rate constant (Kcl), clearance (CL), and half-life (T1/2), are determined from the plasma concentration data. Samples are analysed from all 15 subjects; one subject is a clear outlier and is excluded from the final analysis (N=14 subjects per dose regimen).

[7] = 5 rats, Prograf 0.5 mg/kg i.p. once daily from Day 1 + Vehicle 1 from Day 11
[8] = rats, Prograf 0.5 mg/kg i.p. + Vehicle 1
[9] = rats, Prograf 0.5 mg/kg i.p. once daily from Day 1 + Vehicle 1 from Day 11
[10] = Q-Captisol Dose 0 mg/kg i.p. 30 min before
[11] = Q-Captisol Dose 25 mg/kg i.p. 30 min before
[12] = Q-Captisol Dose 150 mg/kg i.p. 30 min before
[13] = Q-Captisol Dose 300 mg/kg i.p. 30 min before
[14] = Period 1: single oral dose 1 mg tacrolimus alone
[15] = Period 2: 1 mg oral tacrolimus + Q-Captisol po 100 mg three times per day Days 12-14
[16] = male, plasma, Period 1: single oral dose 1 mg tacrolimus alone
[17] = male, plasma, Period 2: 1 mg oral tacrolimus + Q-Captisol po 100 mg three times per day Days 12-14
[18] = male, plasma, Period 3: 1 mg oral tacrolimus after single IV infusion of 100 mg Q-Captisol

SMILES: O=c1c(O)c(-c2ccc(O)c(O)c2)oc2cc(O)cc(O)c12 [quercetin]
- stability without precipitation [1]: stable for more than two weeks without precipitation
- serum half-life [2]: 19 to 25 h
- stability in aqueous solution as a function of pH [3]: stable below pH 3; also recorded: degradation of quercetin above pH 5 became apparent

- fisetin concentration of the solution [4]: approximately 9.47 mg/ml
SMILES: O=c1c(O)c(-c2ccc(O)c(O)c2)oc2cc(O)ccc12 [fisetin]

- Blood glucose Day 1, Mean (rats; [7]): 1.27 g/L
- Blood glucose Day 10, Mean (rats; [7]): 1.49 g/L
- Blood glucose Day 15, Mean (rats; [7]): 2.54 g/L
- Blood glucose Day 20, Mean (rats; [7]): 2.93 g/L
- Blood glucose Day 25, Mean (rats; [7]): 2.55 g/L
- Blood glucose, Mean change from Day 1, Day 10 (rats; [8]): +0.22 g/l
- Blood glucose, Mean change from Day 1, Day 15 (rats; [8]): +1.27 g/l
- Blood glucose, Mean change from Day 1, Day 20 (rats; [8]): +1.66 g/l
- Blood glucose, Mean change from Day 1, Day 25 (rats; [8]): +1.28 g/l
- Blood glucose, Mean change from all vehicle control, Day 1 (rats; [8]): -0.10 g/L
- Blood glucose, Mean change from all vehicle control, Day 10 (rats; [8]): +0.23 g/l
- Blood glucose, Mean change from all vehicle control, Day 15 (rats; [8]): +1.27 g/l
- Blood glucose, Mean change from all vehicle control, Day 20 (rats; [8]): +1.81 g/l
- Blood glucose, Mean change from all vehicle control, Day 25 (rats; [8]): +1.38 g/l
- AUC [5, 10]: 645 ng·h/mL
- Cmax [5, 10]: 418 ng/mL
- Vd [5, 10]: 18.6 L/kg
- clearance [5, 10]: 22.9 mL/min/kg
- half-life [5, 10]: 9.4 h
- AUC [5, 11]: 635 ng·h/mL
- Cmax [5, 11]: 426 ng/mL
- Vd [5, 11]: 16 L/kg
- clearance [5, 11]: 23.3 mL/min/kg
- half-life [5, 11]: 7.9 h
- AUC [5, 12]: 980 ng·h/mL
- Cmax [5, 12]: 781 ng/mL
- Vd [5, 12]: 10.9 L/kg
- clearance [5, 12]: 15.5 mL/min/kg
- half-life [5, 12]: 8.1 h
- AUC [5, 13]: 1240 ng·h/mL
- Cmax [5, 13]: 877 ng/mL
- Vd [5, 13]: 8.2 L/kg
- clearance [5, 13]: 12.2 mL/min/kg
- half-life [5, 13]: 7.7 h
- Tmax [5, 12]: 4.98 min
- CL [6, 14]: 4.75 mL/min/kg
- Vd [6, 14]: 8.5 L/kg
- CL [6, 15]: 3.53 mL/min/kg
- Vd [6, 15]: 8.4 L/kg
- AUC [6, 16]: 48.8 ng·h/mL
- Cmax [6, 16]: 5.8 ng/mL
- Tmax [6, 16]: 1.56 h
- half-life [6, 16]: 20.8 h
- AUC [6, 17]: 65.7 ng·h/mL
- Cmax [6, 17]: 6.5 ng/mL
- Tmax [6, 17]: 1.28 h
- half-life [6, 17]: 27.7 h
- AUC [6, 18]: 56.3 ng·h/mL
- Cmax [6, 18]: 6.4 ng/mL
- Tmax [6, 18]: 1.55 h
- clearance [6, 18]: 4.08 mL/min/kg
- half-life [6, 18]: 19.9 h
- Vd ([6]; male, plasma, Period 3: 1 mg oral tacrolimus after single IV infusion of 100 mg Q-Captisol, read-out: Vd): 7.1 L/kg
SMILES: C=CC[C@@H]1/C=C(\C)C[C@H](C)C[C@H](OC)[C@H]2O[C@@](O)(C(=O)C(=O)N3CCCC[C@H]3C(=O)O[C@H](/C(C)=C/[C@@H]3CC[C@@H](O)[C@H](OC)C3)[C@H](C)[C@@H](O)CC1=O)[C@H](C)C[C@@H]2OC [tacrolimus]
- Blood glucose Day 1, individual rats (rats; [9]): 1.16 g/l (2×) and 1.34 g/l and 1.22 g/l and 1.47 g/l
- Blood glucose Day 10, individual rats (rats; [9]): 1.30 g/L and 1.39 g/L and 1.40 g/L and 1.09 g/L and 2.25 g/L
- Blood glucose Day 15, individual rats (rats; [9]): 3.72 g/L and 1.67 g/L and 2.31 g/L and 1.97 g/L and 3.02 g/L
- Blood glucose Day 20, individual rats (rats; [9]): 2.79 g/L and 3.70 g/L and 2.97 g/L and 2.41 g/L and 2.77 g/L
- Blood glucose Day 25, individual rats (rats; [9]): 0.97 g/L and 3.16 g/L and 1.69 g/L and 2.98 g/L and 3.96 g/L
